The supplement of paper PMC13380429

What was measured:
Settings in all cases: 72 h
Calu-3 [1] = test: relative viability EC50 (midpoint between 100% and the lowest measured viability); higher = less toxic
U2OS [2] = test: as above
Caco-2 [3] = test: as above
Calu-3 [4] = test: cell viability relative to DMSO; higher = less toxic
U2OS [5] = test: as above
Caco-2 [6] = test: as above
Calu-3 [7] = test: drug sensitivity score (DSS) for viability; higher = more toxic; extreme values may be limits of the assay
U2OS [8] = test: as above
Caco-2 [9] = test: as above
Vero E6 [10] = test: relative viability EC50 (midpoint between 100% and the lowest measured viability); higher = less toxic
Vero E6 [11] = test: cell viability relative to DMSO; higher = less toxic
Vero E6 [12] = test: drug sensitivity score (DSS) for viability; higher = more toxic; extreme values may be limits of the assay
HepG2 [13] = test: cell viability relative to DMSO; higher = less toxic
HepG2 [14] = test: drug sensitivity score (DSS) for viability; higher = more toxic; extreme values may be limits of the assay

SMILES	relative viability EC50 (Calu-3 [1])	relative viability EC50 (U2OS [2])	relative viability EC50 (Caco-2 [3])	cell viability (Calu-3 [4]; 1 nM)	cell viability (Calu-3 [4]; 10 nM)	cell viability (Calu-3 [4]; 100 nM)	cell viability (Calu-3 [4]; 1000 nM)	cell viability (Calu-3 [4]; 10000 nM)	cell viability (U2OS [5]; 1 nM)	cell viability (U2OS [5]; 10 nM)	cell viability (U2OS [5]; 100 nM)	cell viability (U2OS [5]; 1000 nM)	cell viability (U2OS [5]; 10000 nM)	cell viability (Caco-2 [6]; 1 nM)	cell viability (Caco-2 [6]; 10 nM)	cell viability (Caco-2 [6]; 100 nM)	cell viability (Caco-2 [6]; 1000 nM)	cell viability (Caco-2 [6]; 10000 nM)	drug sensitivity score (Calu-3 [7])	drug sensitivity score (U2OS [8])	drug sensitivity score (Caco-2 [9])	relative viability EC50 (Vero E6 [10])	cell viability (Vero E6 [11]; 1 nM)	cell viability (Vero E6 [11]; 10 nM)	cell viability (Vero E6 [11]; 100 nM)	cell viability (Vero E6 [11]; 1000 nM)	cell viability (Vero E6 [11]; 10000 nM)	drug sensitivity score (Vero E6 [12])	cell viability (HepG2 [13]; 1 nM)	cell viability (HepG2 [13]; 10 nM)	cell viability (HepG2 [13]; 100 nM)	cell viability (HepG2 [13]; 1000 nM)	cell viability (HepG2 [13]; 10000 nM)	drug sensitivity score (HepG2 [14])
C/C(=C\C(N)C(=O)O)CP(=O)(O)O (stereo not given)	> 10 µM	> 10 µM	> 10 µM	95.9%	98.3%	104%	96.2%	101%	101%	96.3%	97%	97.1%	104%	102%	110%	97.5%	90%	101%	0	0	0													
O=C(Nc1cccnc1)c1cc(-c2ccnc(F)c2)ccc1OCc1ccccc1	> 10 µM	> 10 µM	> 10 µM	94.2%	102%	96.5%	102%	104%	95.6%	100%	95.1%	96.3%	97.3%	107%	110%	94.8%	92%	86.6%	0	0	0.4	> 10 µM	99.3%	101%	97.8%	98%	95.2%	0						
O=C1Nc2ccccc2C2(CCN(CCc3ccc(C(F)(F)F)cc3)CC2)O1	> 10 µM	> 10 µM	> 10 µM	99.7%	98.7%	102%	108%	82.4%	100%	94.9%	99.8%	94.7%	91.2%	93.3%	97.2%	94.7%	99.2%	78.6%	0.2	0	0.8	> 10 µM	95.6%	99%	97.2%	96.3%	93.5%	0	97.7%	96.2%	88.8%	100%	58.1%	2.1
Cc1ccc2c(=O)c3cccc(CC(=O)O)c3oc2c1C [ASA-404]	> 10 µM	> 10 µM	> 10 µM	98%	86.7%	105%	99.4%	102%	100%	97.4%	101%	99.7%	103%	94.6%	98.6%	99%	96%	93.3%	0	0	0	> 10 µM	102%	106%	102%	108%	97.6%	0						
Nc1nc(-c2nn(Cc3ccccc3F)c3ncccc23)ncc1C1CC1 [BAY-41-2272]	> 10 µM	> 10 µM	> 10 µM	100%	108%	91.7%	104%	110%	90%	96.6%	93.9%	101%	105%	86.5%	90.5%	94.1%	100%	93.8%	0	0	0		102%	96.1%	97.3%	86%	66.7%	2.9	95.8%	103%	95.8%	104%	69.2%	1.1
Fc1cccc(/C=N/N=C/c2cccc(F)c2)c1 [DFB]	> 10 µM		> 10 µM	115%	111%	98.8%	105%	104%						99.5%	110%	100%	102%	101%	0		0	> 10 µM	99.9%	98.7%	90%	97.3%	98.6%	0						
O=c1ncn2nc(Sc3ccc(F)cc3F)ccc2c1-c1c(Cl)cccc1Cl [VX-745]	> 10 µM	> 10 µM	> 10 µM	97.1%	107%	98.7%	82.9%	95%	102%	108%	98.4%	94.9%	87.9%	107%	96.5%	104%	99.7%	82.6%	2.1	0.1	0.4	> 10 µM	106%	105%	95.8%	86.1%	86.1%	1.4						
CC(=O)SC[C@@H](C)C(=O)N1CCC[C@H]1C(=O)N[C@@H](Cc1ccccc1)C(=O)O [alacepril]	> 10 µM		> 10 µM	106%	108%	96.9%	103%	99.4%						102%	101%	94.7%	108%	104%	0		0	> 10 µM	98.3%	101%	93%	98.8%	99.4%	0						
COc1ccc(-c2cc(=S)ss2)cc1 [anethole-trithione]	> 10 µM	> 10 µM	> 10 µM	97.1%	95.9%	111%	108%	97.3%	100%	98.9%	99.8%	97.6%	103%	99.3%	96.5%	100%	91.9%	92.2%	0	0	0	> 10 µM	107%	105%	95.9%	102%	106%	0						
CN/C(=N\CCSCc1nc[nH]c1C)NC#N [cimetidine]	> 10 µM	> 10 µM	> 10 µM	104%	106%	102%	101%	88.6%	101%	106%	100%	104%	96.4%	99.8%	98.7%	98.7%	106%	88.1%	0	0	0	> 10 µM	94.5%	91.7%	96.9%	91.3%	90%	0						
C[C@]12CCC(=O)C=C1CC[C@@H]1[C@@H]2CC[C@@]2(C)[C@H]1CC[C@]2(O)C(=O)CO [cortodoxone]	> 10 µM	> 10 µM	> 10 µM	106%	91%	95.2%	97.8%	104%	92.9%	95.2%	96.6%	99.6%	98.7%	89.6%	95.5%	100%	86.5%	103%	0	0	0	> 10 µM	108%	108%	105%	97.6%	96.8%	0						
COC(=O)[C@H](CC(C)C)NC(=O)[C@@H](N)CC(C)C [leucylleucine-methyl-ester]	> 10 µM		> 10 µM	98.1%	107%	86.9%	99.6%	98.5%						98.1%	102%	94.5%	104%	103%	0		0													
CCCC(C)C1(CC)C(=O)NC(=O)NC1=O (stereo not given) [pentobarbital]	> 10 µM	> 10 µM	> 10 µM	106%	90.3%	109%	107%	94.1%	104%	97.1%	99.7%	93.9%	99.1%	94.8%	90.8%	88.3%	89.1%	93.9%	0	0	0.8	> 10 µM	102%	94.4%	96.5%	106%	100%	0						
C#CCN(C)[C@H](C)Cc1ccccc1 [selegiline]																			0	0								0						0
O=C(NN1C(=O)[C@@H]2[C@@H]3C=C[C@@H]([C@H]4C[C@@H]34)[C@@H]2C1=O)c1ccc(C(F)(F)F)cc1 [tecovirimat]	> 10 µM	> 10 µM	> 10 µM	99.7%	90.3%	103%	98.8%	100%	107%	107%	107%	99.6%	104%	109%	104%	105%	101%	94.2%	0	0	0	> 10 µM	98.5%	104%	93%	95.3%	101%	0						
Cc1ccc(S(=O)(=O)NC(=O)NN2CCCCCC2)cc1 [tolazamide]	> 10 µM	> 10 µM	> 10 µM	92.2%	96.2%	88%	79.5%	93.3%	100%	97%	97%	99.2%	103%	95.6%	95%	102%	93.8%	89.7%	0	0	0	> 10 µM	98.9%	86.3%	95.5%	98.3%	107%	0						
